| Structure (SMILES) | logP |
| --- | --- |
| CC(C(=O)CCN(C)C)N1C(=O)C2CC=CCC2C1=O (stereo unspecified) | 0.77 |
| CCNP(=O)(OCC)ON=C(C#N)c1ccc(OC)cc1 (stereo unspecified) | 2.39 |
| Clc1ccc(-c2c(Cl)ccc(Cl)c2Cl)cc1Cl | 6.22 |
| NC(=S)c1ccc([N+](=O)[O-])cc1 | 1.75 |
| O=C1NC(Cc2ccccc2)C(=O)N1Cc1ccccc1 (stereo unspecified) | 2.84 |
| NS(=O)(=O)c1cc2c(cc1Cl)NC(C(Cl)Cl)NS2(=O)=O (stereo unspecified) | 0.62 |
| CCNc1nc(C)c(C(=O)CCN(CC)CC)s1 | 2.72 |
| CNC(=O)CCn1ccc(=O)c(O)c1C | -1.1 |
| CCN1Cn2c(nc3ccccc3c2=O)C1C (stereo unspecified) | 1.02 |
| COC(=O)C1CC2C3CCC4=CC(=O)C=CC4(C)C3C(O)CC2(C)C1C(=O)CO (stereo unspecified) | 1.7 |
| Cc1c(C)c(C)c(C)c(C)c1C | 5.11 |
| Cc1ccc(Cc2cnc(NCCCCc3ncc(Br)cc3C)[nH]c2=O)cn1 | 3.57 |
| CCc1c(O)c(=O)ccn1CC | 0.25 |
| CC1CCCc2ncc(C(N)=O)c(=O)n21 (stereo unspecified) | 0.04 |
| C=CC(=O)OCCOCCOCCOCCOC(=O)C=C | 1.26 |
| OC[C@@H](O)[C@H]1O[C@@H]2O[C@H](C(Cl)(Cl)Cl)O[C@@H]2[C@H]1O | 1.02 |

| Structure (SMILES) | logP |
| --- | --- |
| CC(C)(C)C(COc1ccc(-c2ccccc2)cc1)OC(=S)n1ccnc1 (stereo unspecified) | 6.06 |
| CCNC(=O)NCCCCn1nc(-c2ccccc2)ccc1=O | 1.83 |
| NC(=S)NNC(=O)c1ccc2c(c1)OCO2 | 0.21 |
| O=[N+]([O-])c1cccc(S(=O)(=O)[O-])c1.[Na+] | -2.61 |
| CC12CCC(OS(=O)(=O)O)CC1CCC1C2CCC2(C)C(C3=CC(=O)OC3)CCC12O (stereo unspecified) | -0.14 |
| CC(=O)O[C@H]1C[C@H](O[C@H]2[C@@H](O)C[C@H](O[C@H]3[C@@H](O)C[C@H](OC4CC[C@@]5(C)[C@H](CC[C@@H]6[C@@H]5CC[C@]5(C)[C@@H](C7=CC(=O)OC7)CC[C@]65O)C4)O[C@@H]3C)O[C@@H]2C)O[C@H](C)[C@H]1O[C@@H]1O[C@H](CO)[C@@H](O)[C@H](O)[C@H]1O (stereo partly specified) | 1.23 |
| CCC(C(=O)OCc1ccccc1C)C(CO)Cc1cncn1C (stereo unspecified) | 2.42 |
| COc1cccc(C2C(=O)c3ccccc3C2=O)c1 | 2.88 |
| CCCCCCCO | 2.62 |
| O=C(O)CCCCOc1cccc2ccccc12 | 4 |
| COC1N(C2CC(F)C(CO)O2)C(=O)NC(=O)C1(C)Cl (stereo unspecified) | 0.18 |
| NS(=O)(=O)c1cc2c(cc1Br)NC=NS2(=O)=O | 0 |
| CCCCCCCC(=O)N[C@@H]1C(=O)N2[C@@H]1SC(C)(C)[C@@H]2C(=O)O | 3.32 |
| O=[N+]([O-])c1cnc(N2CCNC2=S)s1 | 1.7 |
| CC(=O)O[C@H]1[C@@H](OC(C)=O)C[C@H](O[C@@H]2C(C)O[C@@H](O[C@H]3[C@@H](OC(C)=O)C[C@H](O[C@H]4CC[C@@]5(C)[C@H](CC[C@@H]6[C@@H]5CC[C@]5(C)[C@@H](C7=CC(=O)OC7)[C@@H](OC(C)=O)C[C@]65O)C4)O[C@@H]3C)C[C@@H]2OC(C)=O)O[C@@H]1C (stereo partly specified) | 3.46 |

— the OPERA property sets (Mansouri et al. 2018)
